Laboratory results as given in PubChem BioAssay AID2060905 (Molecular Pharmacology Branch, DTP, NCI, 2025).

Tested on: 282377-053-R-J1-PDC complex spheroid viability
Assay: Anticancer human tumor 282377-053-R-J1-PDC patient-derived colon adenocarcinoma cell line growth inhibition [RAS]
Details: for IC50: curve of first compound; for viability, T/C: stronger effect = lower value
Method in brief: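 Multi-cell-type spheroids: tumor cells plus HUVEC endothelial cells and mesenchymal stem cells. RAS-pathway inhibitors were combined with targeted agents, each dosed in half-log steps down from clinical Cmax, or from 10 microM when Cmax was unknown.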

[1] = second compound 0.000949 µM, first compound 0.00316 µM
[2] = second compound 0.000949 µM, first compound 0.01 µM
[3] = second compound 0.000949 µM, first compound 0.0316 µM
[4] = second compound 0.000949 µM, first compound 0.1 µM
[5] = second compound 0.000949 µM, first compound 0.316 µM
[6] = second compound 0.000949 µM, first compound 1 µM
[7] = second compound 0.003 µM, first compound 0.00316 µM
[8] = second compound 0.003 µM, first compound 0.01 µM
[9] = second compound 0.003 µM, first compound 0.0316 µM
[10] = second compound 0.003 µM, first compound 0.1 µM
[11] = second compound 0.003 µM, first compound 0.316 µM
[12] = second compound 0.003 µM, first compound 1 µM
[13] = second compound 0.00949 µM, first compound 0.00316 µM
[14] = second compound 0.00949 µM, first compound 0.01 µM
[15] = second compound 0.00949 µM, first compound 0.0316 µM
[16] = second compound 0.00949 µM, first compound 0.1 µM
[17] = second compound 0.00949 µM, first compound 0.316 µM
[18] = second compound 0.00949 µM, first compound 1 µM
[19] = second compound 0.03 µM, first compound 0.00316 µM
[20] = second compound 0.03 µM, first compound 0.01 µM
[21] = second compound 0.03 µM, first compound 0.0316 µM
[22] = second compound 0.03 µM, first compound 0.1 µM
[23] = second compound 0.03 µM, first compound 0.316 µM
[24] = second compound 0.03 µM, first compound 1 µM
[25] = second compound 0.0949 µM, first compound 0.00316 µM
[26] = second compound 0.0949 µM, first compound 0.01 µM
[27] = second compound 0.0949 µM, first compound 0.0316 µM
[28] = second compound 0.0949 µM, first compound 0.1 µM
[29] = second compound 0.0949 µM, first compound 0.316 µM
[30] = second compound 0.0949 µM, first compound 1 µM
[31] = second compound 0.3 µM, first compound 0.00316 µM
[32] = second compound 0.3 µM, first compound 0.01 µM
[33] = second compound 0.3 µM, first compound 0.0316 µM
[34] = second compound 0.3 µM, first compound 0.1 µM
[35] = second compound 0.3 µM, first compound 0.316 µM
[36] = second compound 0.3 µM, first compound 1 µM
[37] = second compound 0.000949 µM, first compound 3.16 µM
[38] = second compound 0.000949 µM, first compound 10 µM
[39] = second compound 0.003 µM, first compound 3.16 µM
[40] = second compound 0.003 µM, first compound 10 µM
[41] = second compound 0.00949 µM, first compound 3.16 µM
[42] = second compound 0.00949 µM, first compound 10 µM
[43] = second compound 0.03 µM, first compound 3.16 µM
[44] = second compound 0.03 µM, first compound 10 µM
[45] = second compound 0.0949 µM, first compound 3.16 µM
[46] = second compound 0.0949 µM, first compound 10 µM
[47] = second compound 0.3 µM, first compound 3.16 µM
[48] = second compound 0.3 µM, first compound 10 µM
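Also: spheroids exposed to agents for seven days before readout.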
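For viability, T/C in this document: luminescence viability as percent of DMSO vehicle control wells.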

C=CC(=O)Nc1cc(Nc2nccc(-c3cn(C)c4ccccc34)n2)c(OC)cc1N(C)CCN(C)C + CCn1c(-c2cc(N3CCN(C)CC3)cnc2C(C)OC)c2c3cc(ccc31)-c1csc(n1)CC(NC(=O)C1CC1C)C(=O)N1CCCC(N1)C(=O)OCC(C)(C)C2
IC50 (second compound 0.000949 µM): > 1000 nM | IC50 (second compound 0.003 µM): > 1000 nM | IC50 (second compound 0.00949 µM): > 1000 nM | IC50 (second compound 0.03 µM): > 1000 nM | IC50 (second compound 0.0949 µM): > 1000 nM | IC50 (second compound 0.3 µM): > 1000 nM | viability, T/C [1]: 96.5% | viability, T/C [2]: 109% | viability, T/C [3]: 78% | viability, T/C [4]: 86.9% | viability, T/C [5]: 83.4% | viability, T/C [6]: 91.6% | viability, T/C [7]: 87.3% | viability, T/C [8]: 106% | viability, T/C [9]: 89.9% | viability, T/C [10]: 80.8% | viability, T/C [11]: 83.6% | viability, T/C [12]: 75.8% | viability, T/C [13]: 102% | viability, T/C [14]: 90.8% | viability, T/C [15]: 97.5% | viability, T/C [16]: 84.8% | viability, T/C [17]: 73.8% | viability, T/C [18]: 80.3% | viability, T/C [19]: 83% | viability, T/C [20]: 97.4% | viability, T/C [21]: 116% | viability, T/C [22]: 89.9% | viability, T/C [23]: 85.6% | viability, T/C [24]: 94.4% | viability, T/C [25]: 95% | viability, T/C [26]: 92.5% | viability, T/C [27]: 97.8% | viability, T/C [28]: 78.6% | viability, T/C [29]: 112% | viability, T/C [30]: 91.7% | viability, T/C [31]: 84.9% | viability, T/C [32]: 97.2% | viability, T/C [33]: 92% | viability, T/C [34]: 97.5% | viability, T/C [35]: 98.6% | viability, T/C [36]: 138%

CC(C)NCC(C(=O)N1CCN(c2ncnc3c2C(C)CC3O)CC1)c1ccc(Cl)cc1 (stereo not drawn) + CCn1c(-c2cc(N3CCN(C)CC3)cnc2C(C)OC)c2c3cc(ccc31)-c1csc(n1)CC(NC(=O)C1CC1C)C(=O)N1CCCC(N1)C(=O)OCC(C)(C)C2
IC50 (second compound 0.000949 µM): > 10000 nM | IC50 (second compound 0.003 µM): > 10000 nM | IC50 (second compound 0.00949 µM): > 10000 nM | IC50 (second compound 0.03 µM): > 10000 nM | IC50 (second compound 0.0949 µM): > 10000 nM | IC50 (second compound 0.3 µM): > 10000 nM | viability, T/C [3]: 96.1% | viability, T/C [4]: 93.7% | viability, T/C [5]: 80.8% | viability, T/C [6]: 79.4% | viability, T/C [37]: 78% | viability, T/C [38]: 76.5% | viability, T/C [9]: 90.7% | viability, T/C [10]: 106% | viability, T/C [11]: 88.2% | viability, T/C [12]: 71.8% | viability, T/C [39]: 76.2% | viability, T/C [40]: 68.3% | viability, T/C [15]: 93% | viability, T/C [16]: 119% | viability, T/C [17]: 79.4% | viability, T/C [18]: 68% | viability, T/C [41]: 70.7% | viability, T/C [42]: 69.1% | viability, T/C [21]: 111% | viability, T/C [22]: 83.1% | viability, T/C [23]: 82.5% | viability, T/C [24]: 70% | viability, T/C [43]: 65.3% | viability, T/C [44]: 64.4% | viability, T/C [27]: 95.3% | viability, T/C [28]: 87.6% | viability, T/C [29]: 93.8% | viability, T/C [30]: 62.8% | viability, T/C [45]: 63.8% | viability, T/C [46]: 65.4% | viability, T/C [33]: 100% | viability, T/C [34]: 86.6% | viability, T/C [35]: 109% | viability, T/C [36]: 69.1% | viability, T/C [47]: 64.6% | viability, T/C [48]: 69.9%

CC(Nc1ccc2c(c1)OCCn1cc(N3C(=O)OCC3C(F)F)nc1-2)C(N)=O (stereo not drawn) + CCn1c(-c2cc(N3CCN(C)CC3)cnc2C(C)OC)c2c3cc(ccc31)-c1csc(n1)CC(NC(=O)C1CC1C)C(=O)N1CCCC(N1)C(=O)OCC(C)(C)C2
IC50 (second compound 0.000949 µM): > 10000 nM | IC50 (second compound 0.003 µM): > 10000 nM | IC50 (second compound 0.00949 µM): > 10000 nM | IC50 (second compound 0.03 µM): > 10000 nM | IC50 (second compound 0.0949 µM): > 10000 nM | IC50 (second compound 0.3 µM): > 10000 nM | viability, T/C [3]: 95.5% | viability, T/C [4]: 104% | viability, T/C [5]: 81.1% | viability, T/C [6]: 80% | viability, T/C [37]: 74.3% | viability, T/C [38]: 77.4% | viability, T/C [9]: 96.5% | viability, T/C [10]: 104% | viability, T/C [11]: 95.2% | viability, T/C [12]: 81.8% | viability, T/C [39]: 75.3% | viability, T/C [40]: 70.6% | viability, T/C [15]: 103% | viability, T/C [16]: 83.4% | viability, T/C [17]: 109% | viability, T/C [18]: 96.5% | viability, T/C [41]: 84.5% | viability, T/C [42]: 68.3% | viability, T/C [21]: 86.6% | viability, T/C [22]: 83.2% | viability, T/C [23]: 84.1% | viability, T/C [24]: 80.3% | viability, T/C [43]: 82.2% | viability, T/C [44]: 70.7% | viability, T/C [27]: 90.6% | viability, T/C [28]: 82.9% | viability, T/C [29]: 93.7% | viability, T/C [30]: 95.3% | viability, T/C [45]: 82.9% | viability, T/C [46]: 98.7% | viability, T/C [33]: 106% | viability, T/C [34]: 78.9% | viability, T/C [35]: 94.3% | viability, T/C [36]: 104% | viability, T/C [47]: 84.3% | viability, T/C [48]: 87.9%

O=C(c1ccc(F)c(F)c1Nc1ccc(I)cc1F)N1CC(O)([C@@H]2CCCCN2)C1 + CCn1c(-c2cc(N3CCN(C)CC3)cnc2C(C)OC)c2c3cc(ccc31)-c1csc(n1)CC(NC(=O)C1CC1C)C(=O)N1CCCC(N1)C(=O)OCC(C)(C)C2
IC50 (second compound 0.000949 µM): 38.2 nM | IC50 (second compound 0.003 µM): 56.7 nM | IC50 (second compound 0.00949 µM): 37.7 nM | IC50 (second compound 0.03 µM): 11.9 nM | IC50 (second compound 0.0949 µM): 17.9 nM | IC50 (second compound 0.3 µM): 14.3 nM | viability, T/C [1]: 68.3% | viability, T/C [2]: 65.3% | viability, T/C [3]: 49.6% | viability, T/C [4]: 39.9% | viability, T/C [5]: 27.2% | viability, T/C [6]: 16.9% | viability, T/C [7]: 70.3% | viability, T/C [8]: 61.9% | viability, T/C [9]: 69.6% | viability, T/C [10]: 33.2% | viability, T/C [11]: 26.1% | viability, T/C [12]: 14.6% | viability, T/C [13]: 68% | viability, T/C [14]: 67.4% | viability, T/C [15]: 51.7% | viability, T/C [16]: 34% | viability, T/C [17]: 22.1% | viability, T/C [18]: 16% | viability, T/C [19]: 77.4% | viability, T/C [20]: 43% | viability, T/C [21]: 45.9% | viability, T/C [22]: 26.7% | viability, T/C [23]: 20.6% | viability, T/C [24]: 15.4% | viability, T/C [25]: 75.9% | viability, T/C [26]: 68% | viability, T/C [27]: 32% | viability, T/C [28]: 23.8% | viability, T/C [29]: 18.1% | viability, T/C [30]: 13.8% | viability, T/C [31]: 67.8% | viability, T/C [32]: 58.6% | viability, T/C [33]: 31.1% | viability, T/C [34]: 21.5% | viability, T/C [35]: 18.8% | viability, T/C [36]: 15.8%
